Like-named read-outs stand apart in the source and are kept apart here.

The IC90 is the point of the concentration-response curve where the effect stands at 90%. A word on the IC50: it is the midpoint of a concentration-inhibition curve.

Data set [1] concerns PBMCs from HIV-infected patients. The experiment in a line: Cell viability by XTT in HIV-infected patient PBMCs. To be noted: up to 20 d of culture, relative to controls. The class given is cell-based, human. On the procedure: Figure 2 CSs inhibit the growth of clinical strains of HIV isolated from HIV infected patients. PBMCs from HIV infected patients were depleted of CD8^+ T cells (Supplementary Fig. S3), activated by anti-CD3 and anti-CD28 antibodies, and treated 20 d with indicated concentrations of drug/compound. HIV particle formation was quantitated by p24^CA ELISA of cell supernatants and viability of cells were assayed by XTT. […] (a–e) CSs potently impair the outgrowth of HIV from HIV-infected PBMCs (n = 3, mean, s.e.m.). Graphs of viral growth (p24 protein levels) and cell viability (gray circles, adjacent y-axis) of cells treated with drug/compounds (red triangles) or DMSO (black circles) are shown. The drug 3TC and the CS digoxin (d–e) were provided for comparison. […] Dose-response curves of CS effects on HIV replication (relative Gag expression, black circles) and cell viability (gray circles) were measured on day 14.
Human PBMCs were obtained for experiments from drug-naïve HIV-infected patients, depleted of CD8^+ T cells using Dynabeads CD8 (Invitrogen, #111.47D), activated with anti-CD3 and anti-CD28 antibodies, and treated as previously described and above[10],[11]. […] HIV growth in cultures was monitored by p24^CA ELISA of cell supernatants harvested (detailed below) and the effect of compounds on cell viability were monitored by XTT assay.
For orientation: Formazan colour is commonly taken as a measure of viable cells.

The test system of data set [2] is clinical strains of HIV. The experiment in a line: microbe, parasite or virus in culture. Type of data set: cell-based. Particulars: for IC90 / IC50: Human immunodeficiency virus 1, PBMC, 336 h; for IC90: read-out: IC90, viral growth in HIV-infected PBMCs; for IC50: read-out: IC50 (nM) HIV-infected PBMCs. On the procedure: PBMCs from HIV infected patients were depleted of CD8^+ T cells (Supplementary Fig. S3), activated by anti-CD3 and anti-CD28 antibodies, and treated 20 d with indicated concentrations of drug/compound. HIV particle formation was quantitated by p24^CA ELISA of cell supernatants and viability of cells were assayed by XTT. […] Graphs of viral growth (p24 protein levels) and cell viability (gray circles, adjacent y-axis) of cells treated with drug/compounds (red triangles) or DMSO (black circles) are shown. The drug 3TC and the CS digoxin (d–e) were provided for comparison. […] Dose-response curves of CS effects on HIV replication (relative Gag expression, black circles) and cell viability (gray circles) were measured on day 14.
PBMCs were then seeded to 24-well plates in the presence/absence of indicated drug/compounds (0.5 mL final) which were pre-diluted in RPMI^+++ in the same manner as described above. Every 3–4 days, ~0.25 mL of media was harvested for assays and replenished with ~0.25 mL of fresh medium with drug/compound and 20 U/mL of IL-2. HIV growth in cultures was monitored by p24^CA ELISA of cell supernatants harvested (detailed below) and the effect of compounds on cell viability were monitored by XTT assay.
(§1) To monitor HIV-1 gene expression or replication, Gag release into cell culture supernatants were assayed by ELISA using a p24^CA antigen capture assay kit (AIDS & Cancer Virus Program, NCI-Frederick, Frederick, MD USA). Media harvested from HIV clinical isolates were diluted ~10 fold (or as necessary) prior to performing this assay. For analysis of HIV-1 and SR protein expression (and phosphorylation states with calf intestinal alkaline phosphatase treatments), cells were lysed and analyzed by western blot as previously outlined. Phosphatase inhibitors (e.g. 10 mM sodium fluoride, 2 mM sodium orthovanadate) were added to solutions requiring phospho protein analyses. An anti-chicken NKA antibody (α6F, #a6F–c, Developmental Studies Hybridoma Bank, The University of Iowa, contributed by Douglas M. Fambrough, The Johns Hopkins University) was used as specified to detect NKA α1- and β1-subunits across species. […] Activation of MAPKs was determined by western blot quantitation and calculation of phospho/total protein levels. […] Images were exported as TIF files for assembly, rotation, and equal brightness/contrast adjustments in ImageJ or Microsoft Powerpoint. Some lanes were cropped and rearranged from the same blot/gel as indicated. In representative gel/blot sets, samples were electrophoresed from the same experiment as controls, resolved simultaneously on identically cast gel(s), transferred to same PVDF (by either wet electrophoretic or by Bio-Rad Trans-Blot® Turbo Transfer System), and detected at same time. Marked locations of molecular weight (MW) standards are shown on the left as a reference. […] SUnSET analysis of total cellular protein synthesis. HeLa rtTA-HIV-ΔMls cells were cultured in the presence/absence of compound and pathway inhibitor (if any) and Dox induced for ~24 h as already described, then treated with puromycin (10 μg/mL, Sigma-Aldrich, #P8833) for 30 min to label nascent proteins prior to harvest. As control, 10 µM of cycloheximide (Sigma-Aldrich, #C4849) was added to some cells prior to puromycin treatment. Cells were subsequently washed, whole cell lysates prepared, and proteins quantified by western blot using an anti-puromycin antibody (EMD Millipore, #anti-12D10) as described above. Transfection of plasmid DNA into cells. Transfection of pCMV6-HA-AKT-1 (WT, KM, or Myr) or CMV myc and with CMV tTA pA and CMV PLAP plasmids into HeLa rtTA-HIV-ΔMls cells were performed by polyethylene imine (PEI) transfection as previously described[9],[10].

Data set [3] concerns HIV-1 Rev. The experiment in a line: Immunoblot of HIV-1 Rev (p19) in HeLa rtTA-HIV-ΔMls cells. The class given is cell-based. How it is done: as §1
Where [4] appears, read: p24CA ELISA, day 14, inferred near maximal IC50s.

`C[C@]12CC[C@H](O)C[C@H]1CC[C@@H]1[C@@H]2CC[C@]2(C)[C@@H](C3=CC(=O)OC3)CC[C@]12O` [Digitoxigenin]: in data set [1], the “cell viability of HIV-infected PBMCs” value was “no observable changes in cell viability”. For the same molecule, the IC90 in data set [2] (Day14, p24CA ELISA) is 2 nM. Moreover, the IC50 in data set [2] (setting [4]) was ~1.1 nM.

As for `C[C@H]1O[C@@H](O[C@H]2[C@@H](O)C[C@H](O[C@H]3[C@@H](O)C[C@H](O[C@H]4CC[C@@]5(C)[C@H](CC[C@@H]6[C@@H]5CC[C@]5(C)[C@@H](C7=CC(=O)OC7)CC[C@]65O)C4)O[C@@H]3C)O[C@@H]2C)C[C@H](O)[C@@H]1O` [Digitoxin], the “cell viability of HIV-infected PBMCs” value in data set [1] was “no observable changes in cell viability”. Also, in data set [3], the Rev accumulation entry is reported as “no effect on Rev accumulation”. For the same molecule, in data set [2], the “concentration to inhibit viral replication in HIV-infected PBMCs, fold lower than serum concentration in patients treated for heart conditions” value was 15–26 fold. Further, the 90% effect concentration (IC90) in data set [2] (Day14, p24CA ELISA) was 7.5 nM. Moreover, in data set [2] (setting [4]), the IC50 is ~1.3 nM.

For the molecule `C[C@H]1O[C@@H](O[C@H]2[C@@H](O)C[C@H](O[C@H]3[C@@H](O)C[C@H](O[C@H]4CC[C@@]5(C)[C@H](CC[C@@H]6[C@@H]5C[C@@H](O)[C@]5(C)[C@@H](C7=CC(=O)OC7)CC[C@]65O)C4)O[C@@H]3C)O[C@@H]2C)C[C@H](O)[C@@H]1O` [Digoxin], the Rev accumulation result in data set [3] is listed as “reduce Rev accumulation”. In data set [2], the IC50 was ~1.1 nM and the IC90 stood at 2 nM.

Take `CC(=O)O[C@H]1C[C@H](O[C@H]2[C@@H](O)C[C@H](O[C@H]3[C@@H](O)C[C@H](O[C@H]4CC[C@@]5(C)[C@H](CC[C@@H]6[C@@H]5C[C@@H](O)[C@]5(C)[C@@H](C7=CC(=O)OC7)CC[C@]65O)C4)O[C@@H]3C)O[C@@H]2C)O[C@H](C)[C@H]1O[C@@H]1O[C@H](CO)[C@@H](O)[C@H](O)[C@H]1O` [Lanatoside C]: the Rev accumulation entry in data set [3] is “reduce Rev accumulation”.

`C[C@@H]1O[C@@H](O[C@H]2C[C@@H](O)[C@]3(CO)[C@H]4[C@H](O)C[C@]5(C)[C@@H](C6=CC(=O)OC6)CC[C@]5(O)[C@@H]4CC[C@]3(O)C2)[C@H](O)[C@H](O)[C@H]1O` [Ouabain]: the Rev accumulation result in data set [3] is listed as “no effect on Rev accumulation”.

For the origin of these results see article PMC5770468, “Cardiac glycoside/aglycones inhibit HIV-1 gene expression by a mechanism requiring MEK1/2-ERK1/2 signaling” (Scientific Reports, 2018).
